The values below come from US6399356B1, “Process and agent for sanitation of contaminations caused by viruses” (priority 1998, dated 2002).

Each structure is given as a SMILES string.

In one assay the test system is reo-3-virus. As to the kind of experiment: Sanitization of a DEAE-Sephadex chromatography column contaminated with virus. The protocol: 1 g of DEAE-Sephadex A-50 (pre-swollen) was added as a slurry in 20 ml of PBS (pH 7.2) to 500 ml of a reo-3-virus-containing aqueous solution (cell culture supernatant with 5% FCS) having a virus titer (CCID50) of 5.5 log10. After stirring for 30 min at approximately 20° C., all the material was transferred to a chromatography column and, after sedimentation of the resin, the column was emptied. The resin was then washed with 150 ml of wash buffer (0.2 M NaCl, pH 6.0 by means of KH2PO4/NaOH) and finally eluted with elution buffer (2.0 M NaCl, pH 8.0 by means of KH2PO4/NaOH). For sanitization, the column was washed (in countercurrent) with 3 column volumes of a wash buffer containing carvacrol solution (1:2000) and allowed to stand overnight at approximately 20° C. under this carvacrol solution. The column was then regenerated with wash buffer.

The test system of assay [1] is non-cytopathogenic pestivirus strain in MDBK cell culture. As to the kind of experiment: Sanitization of a cell culture: titration of cytopathogenic BVDV strain on treated MDBK indicator cells. In kind it is cell-based. The protocol:
The infection of the cell culture can be followed, inter alia, by the (fetal) calf serum necessary for cell culture.
An MDBK cell culture which is infected with a non-cytopathogenic pestivirus strain is passaged as is customary (splitting rate 1:5; Eagles Minimal Essential Medium containing 5% FCS) and two cell culture flasks are prepared. One cell culture flask remains untreated, the second cell culture flask is treated with thymol (1:50,000). Both cell culture flasks are passaged weekly, the treatment of the cell culture being carried out for 3 passages. After one passage without treatment, cells from the respective cell culture flasks are inoculated into microtiter plates and a titration (end point dilution method) of a cytopathogenic BVDV strain (Denmark) is carried out on the respective indicator cells. The cytopathogenic effect is evaluated as an indication of virus replication and the virus titer is calculated (Spaerman-Kärber method; Table 2).
On the technique in general: Protection from cytopathic effect is a common read-out in antiviral testing.

Setting [2] is: carvacrol solution (1:2000) after about 16 hours' incubation at approximately 20° C. (12 ml).
The mark [3] stands for this setting: wash buffer after sanitation with carvacrol, 2nd column volume (12 ml).

In the case of `Cc1ccc(C(C)C)cc1O` [Carvacrol solution, carvacrol], the “Virus load (Titer × volume)” value with reo-3-virus (setting [2]) was “≦2.6 [log10]”; in the assay with reo-3-virus (carvacrol solution (1:2000), 1st column volume (12 ml), determined immediately after obtaining the sample, starting material 8.2) it was 5.3 [log10]; in the assay with reo-3-virus (setting [3]) it was “≦2.6 [log10]”. Besides, the Virus titer entry in the assay on reo-3-virus (setting [2]) is “≦1.5 CCID50/ml[log10]”; in the assay on reo-3-virus (carvacrol solution (1:2000) in wash buffer, 1st column volume (12 ml), titer determined immediately after obtaining the sample, starting material 5.5) it was 4.2 CCID50/ml[log10]; in the assay with reo-3-virus (setting [3]), “≦1.5 CCID50/ml[log10]”. The “Inactivation of reo-3-virus on the column” value in the assay with reo-3-virus (sanitization of DEAE-Sephadex column with carvacrol solution (1:2000) overnight) was “complete inactivation of reo-3-virus below the detection limit”.
On to `Cc1ccc(C(C)C)c(O)c1` [thymol], for which the “Virus titer of cytopathogenic BVDV strain (Denmark) on the indicator cells” value in assay [1] (MDBK cells infected with non-cytopathogenic pestivirus, 3 passages treated with thymol (1:50,000), then one passage without treatment, untreated 3.9, starting culture 4.3) is 7.6 (CCID50ml) [log10]. For the same molecule, the “Inactivation of non-cytopathogenic pestivirus in MDBK cells” value in assay [1] (thymol (1:50,000), 3 passages) is “the non-cytopathogenic pestivirus is inactivated”.
